Measured values as given in patent US20210214560A1, “COMPOUND, COLORING COMPOSITION, INK, TONER, COLORING RESIN COMPOSITION, AND COMPOSITION FOR DYEING FIBER” (FUJIFILM Corporation, priority 2018, published 2021).

Columns and labels:
Assay type in all cases: physicochemical
[1] = Evaluation of maximum absorption wavelength (absorption spectrum in tetrahydrofuran solution); details: 1×10^−6 mol/L
[2] = Evaluation of heat stability (heat resistance), powder heated at 180° C. for 5 minutes; details: oven 180° C. for 5 minutes, A/A0×100, absorbance in tetrahydrofuran
Method: (§1) Heat stability of each compound was evaluated by the following procedure. 10 mg of the powder of each compound was dissolved in 500 mL of tetrahydrofuran, and the absorption spectrum was measured to obtain a reference absorbance (A0). On the other hand, 10 mg of the powder of each compound was weighed in a 4 cm square aluminum cup, placed in an oven, and heated at 180° C. for 5 minutes. The entire amount of the powder after heating was dissolved in 500 mL of tetrahydrofuran, and the absorption spectrum was measured to obtain an absorbance (A) after the heating test. The residual rate of each compound was calculated by the following expression to evaluate heat stability.
Residual rate of compound (%)=A/A0×100

[3] = Evaluation 2 of heat stability, powder heated at 200° C. for 5 minutes; details: oven 200° C. for 5 minutes, A2/A0×100, absorbance in tetrahydrofuran
Method: as §1, with “200°” for “180°”, “(A2)” for “(A)”
Residual rate of compound (%)=A2/A0×100

[4] = optical path length 10 mm (Table 7)
[5] = optical path length 10 mm (Table 9)

Compound | Absorption maximum wavelength [1, 4] [nm] | Molar light absorption coefficient [1, 4] | Residual rate of compound [2] [%] | Residual rate of compound [3] [%] | Absorption maximum wavelength [1, 5] [nm] | Molar light absorption coefficient [1, 5] [L/mol/cm]
CCC1(C)Nc2cccc3c(N=Nc4ccc(N=Nc5ccccc5Cl)c5ccccc45)ccc(c23)N1 (centres unmarked) [(1-2)] | 627 | 34,000 L · mol^−1 · cm^−1 | 84 | – | – | –
CC1(C)Nc2cccc3c(N=Nc4ccc(N=Nc5ccccc5Br)c5ccccc45)ccc(c23)N1 [(1-34)] | 621 | 32,800 L · mol^−1 · cm^−1 | 74 | – | – | –
CC1CCCCC12Nc1cccc3c(N=Nc4ccc(N=Nc5ccccc5Cl)c5ccccc45)ccc(c13)N2 (centres unmarked) [(1-27)] | 629 | 34,800 L · mol^−1 · cm^−1 | 81 | – | – | –
CC(C)C1(C)Nc2cccc3ccc(N=Nc4ccc(N=Nc5ccccc5Cl)c5ccccc45)c(c23)N1 (centres unmarked) [(3-9)] | – | – | – | 85 | 614 | 35500
COC(=O)c1ccccc1N=Nc1ccc(N=Nc2ccc3cccc4c3c2NC(C)(C)N4)c2ccccc12 [(3-3)] | – | – | – | 86 | 586 | 29200
CC1(C)Nc2cccc3ccc(N=Nc4ccc(N=Nc5ccccc5)c5ccccc45)c(c23)N1 [Comparative compound D, reference compound] | – | – | – | 65 | 599 | 34200
CC1(C)Nc2cccc3c(N=Nc4ccc(N=Nc5ccccc5Cl)c5ccccc45)ccc(c23)N1 [(1-1)] | 624 | 34,500 L · mol^−1 · cm^−1 | 85 | – | – | –
CC1(Cc2ccccc2)Nc2cccc3c(N=Nc4ccc(N=Nc5ccccc5Cl)c5ccccc45)ccc(c23)N1 (centres unmarked) [(1-64)] | 631 | 36,800 L · mol^−1 · cm^−1 | 73 | – | – | –
CC(C)(C)C1(C)Nc2cccc3c(N=Nc4ccc(N=Nc5ccccc5Cl)c5ccccc45)ccc(c23)N1 (centres unmarked) [(1-8)] | 631 | 35,200 L · mol^−1 · cm^−1 | 81 | – | – | –
CC1(C)Nc2cccc3c(N=Nc4ccc(N=Nc5ccccc5F)c5ccccc45)ccc(c23)N1 [(1-31)] | 619 | 35,000 L · mol^−1 · cm^−1 | 90 | – | – | –
CCCCCC1(C)Nc2cccc3c(N=Nc4ccc(N=Nc5ccccc5Cl)c5ccccc45)ccc(c23)N1 (centres unmarked) [(1-9)] | 629 | 35,900 L · mol^−1 · cm^−1 | 84 | – | – | –
CCCC1(C)Nc2cccc3c(N=Nc4ccc(N=Nc5ccccc5Cl)c5ccccc45)ccc(c23)N1 (centres unmarked) [Compound (1-3)] | 629 | 34,400 L · mol^−1 · cm^−1 | 82 | – | – | –
CC(C)NC(=O)OCC1(C)Nc2cccc3c(N=Nc4ccc(N=Nc5ccccc5Cl)c5ccccc45)ccc(c23)N1 (centres unmarked) [(1-21)] | 623 | 33,900 L · mol^−1 · cm^−1 | 84 | – | – | –
CC1(C)Nc2cccc3ccc(N=Nc4ccc(N=Nc5ccccc5Cl)c5ccccc45)c(c23)N1 [(3-1)] | – | – | – | 83 | 612 | 36300
CC1(C)Nc2cccc3ccc(N=Nc4ccc(N=Nc5ccccc5F)c5ccccc45)c(c23)N1 [(3-2)] | – | – | – | 85 | 608 | 36000
CC1(CC#N)Nc2cccc3c(N=Nc4ccc(N=Nc5ccccc5Cl)c5ccccc45)ccc(c23)N1 (centres unmarked) [(1-61)] | 604 | 34,100 L · mol^−1 · cm^−1 | 77 | – | – | –
CC1(C)Nc2cccc3c(N=Nc4ccc(N=Nc5ccc(F)cc5)c5ccccc45)ccc(c23)N1 [Comparative compound B, reference compound] | – | – | 64 | – | – | –

Compound | Absorption maximum wavelength [1, 4] [nm] | Molar light absorption coefficient [1, 4] | Residual rate of compound [2] [%] | Residual rate of compound [3] [%] | Absorption maximum wavelength [1, 5] [nm] | Molar light absorption coefficient [1, 5] [L/mol/cm]
CCCCC1(C)Nc2cccc3ccc(N=Nc4ccc(N=Nc5ccccc5Cl)c5ccccc45)c(c23)N1 (centres unmarked) [(3-8)] | – | – | – | 87 | 616 | 35800
CC(C)C1(C)Nc2cccc3c(N=Nc4ccc(N=Nc5ccccc5Cl)c5ccccc45)ccc(c23)N1 (centres unmarked) [(1-4)] | 631 | 33,000 L · mol^−1 · cm^−1 | 84 | – | – | –
CCCC1(C)Nc2cccc3ccc(N=Nc4ccc(N=Nc5ccccc5Cl)c5ccccc45)c(c23)N1 (centres unmarked) [Compound (3-7)] | – | – | – | 85 | 617 | 36200
CC1(CO)Nc2cccc3c(N=Nc4ccc(N=Nc5ccccc5Cl)c5ccccc45)ccc(c23)N1 (centres unmarked) [(1-17)] | 622 | 33,100 L · mol^−1 · cm^−1 | 89 | – | – | –
CCCCCC1(C)Nc2cccc3c(N=Nc4ccc(N=Nc5ccccc5C(C)=O)c5ccccc45)ccc(c23)N1 (centres unmarked) [(1-50)] | 629 | 34,900 L · mol^−1 · cm^−1 | 98 | – | – | –
CCCCC(CC)C(=O)OCC1(C)Nc2cccc3c(N=Nc4ccc(N=Nc5ccccc5Cl)c5ccccc45)ccc(c23)N1 (centres unmarked) [(1-20)] | 623 | 33,800 L · mol^−1 · cm^−1 | 84 | – | – | –
CC1(C)Nc2cccc3c(N=Nc4ccc(N=Nc5ccccc5)c5ccccc45)ccc(c23)N1 [Comparative compound C, reference compound] | – | – | – | 59 | 607 | 32000
CC(=O)c1ccccc1N=Nc1ccc(N=Nc2ccc3cccc4c3c2NC(C)(C)N4)c2ccccc12 [(3-6)] | – | – | – | 96 | 615 | 36100
CC1(C)Nc2cccc3ccc(N=Nc4ccc(N=Nc5ccccc5[N+](=O)[O-])c5ccccc45)c(c23)N1 [(3-5)] | – | – | – | 95 | 627 | 32100
CC1(CC(N)=O)Nc2cccc3c(N=Nc4ccc(N=Nc5ccccc5Cl)c5ccccc45)ccc(c23)N1 (centres unmarked) [(1-62)] | 607 | 34,200 L · mol^−1 · cm^−1 | 74 | – | – | –
CCCCC1(C)Nc2cccc3c(N=Nc4ccc(N=Nc5ccccc5Cl)c5ccccc45)ccc(c23)N1 (centres unmarked) [(1-5)] | 629 | 35,100 L · mol^−1 · cm^−1 | 81 | – | – | –
CC1(C)Nc2cccc3ccc(N=Nc4ccc(N=Nc5ccccc5C#N)c5ccccc45)c(c23)N1 [(3-4)] | – | – | – | 88 | 638 | 30500
CCCCCC1(C)Nc2cccc3ccc(N=Nc4ccc(N=Nc5ccccc5Cl)c5ccccc45)c(c23)N1 (centres unmarked) [(3-10)] | – | – | – | 88 | 615 | 34800
CC1(C)Nc2cccc3c(N=Nc4ccc(N=Nc5ccccc5C(=O)c5ccccc5)c5ccccc45)ccc(c23)N1 [(1-59)] | 639 | 35,700 L · mol^−1 · cm^−1 | 82 | – | – | –
CC1(C)Nc2cccc3c(N=Nc4ccc(N=Nc5cccc(F)c5)c5ccccc45)ccc(c23)N1 [Comparative compound A, reference compound] | – | – | 63 | – | – | –
CC1(C)Nc2cccc3c(N=Nc4ccc(N=Nc5ccccc5C#N)c5ccccc45)ccc(c23)N1 [(1-38)] | 648 | 28,900 L · mol^−1 · cm^−1 | 92 | – | – | –
COC(=O)c1ccccc1N=Nc1ccc(N=Nc2ccc3c4c(cccc24)NC(C)(C)N3)c2ccccc12 [(1-40)] | 599 | 26,600 L · mol^−1 · cm^−1 | 80 | – | – | –
